Structures can show the parent of a compound that is named as a salt.
Biological target: ^3 H-nitrendipine binding, membrane preparation obtained from the cortex of the rat brain
Test: displacement of tritium-labeled nitrendipine in a membrane preparation from the cortex of the rat brain
Details: ^3 H-nitrendipine 0.1 nM, 25° C., 60 min, pH 7.4; unspecific binding with 1 μM nifedipine
Description: We carried out this test in a membrane preparation obtained from the cortex of the rat brain and washed several times, the method which we used being essentially that of R. J. Gould et al. (Proc. Natl. Acad. Sci. USA 79, 3656 [1982]). […] The membrane fractions were removed by vacuum filtration through Whatman GF/F fiber glass filters, and the radioactivity was measured in a liquid scintillation counter. We determined the unspecific ^3 H-nitrendipine binding in the presence of 1 μM nifedipine. The IC50 is determined as characteristic quantity, i.e. the concentration of test substance which is able to displace 50% of the radiolabeled nitrendipine.

Compound	IC50 [nM]
Fc1ccc(C(CCCN2CCN(CCSc3cccc(Cl)c3)CC2)c2ccc(F)cc2)cc1 [Example 5, 1-[4,4-bis(4-fluorophenyl)butyl]-4-[2-(3-chlorophenylthio)ethyl]piperazine dihydrochloride]	1.2
Fc1ccc(SCCN2CCN(CCCC(c3ccc(F)cc3)c3ccc(F)cc3)CC2)cc1 [Example 3, 1-[4,4-bis(4-fluorophenyl)butyl]-4-[2-(4-fluorophenylthio)ethyl]piperazine dihydrochloride]	7
Fc1ccc(C(CCCN2CCN(CCSc3ccc(Cl)cc3)CC2)c2ccc(F)cc2)cc1 [Example 1, 1-[4,4-bis(4-fluorophenyl)butyl]-4-[2-(4-chlorophenylthio)ethyl]piperazine]	4

The next lines start with the values.

IC50 [nM]	Compound
22	O=[N+]([O-])c1ccc(SCCN2CCN(CCCC(c3ccc(F)cc3)c3ccc(F)cc3)CC2)cc1 [Example 4, 1-[4,4-bis(4-fluorophenyl)butyl]-4-[2-(4-nitrophenylthio)ethyl]piperazine dihydrochloride]
430	Cc1cccc(C)c1NC(=O)CN1CCN(CCCC(c2ccc(F)cc2)c2ccc(F)cc2)CC1 [Lidoflazine, lidoflazine, reference compound]
20	Cc1ccc(SCCN2CCN(CCCC(c3ccc(F)cc3)c3ccc(F)cc3)CC2)cc1 [Example 2, 1-[4,4-bis(4-fluorophenyl)butyl]-4-[2-(4-methylphenylthio)ethyl]piperazine dihydrochloride]
